The results in this text go back to US6867192B1, “Compounds useful in the treatment of inflammatory diseases” (priority 1998, dated 2005).

The target of the assay is T1, integrin VLA-4, expressed on the Jurkat J6 (human lymphoblast cell line) cell membrane with VCAM-1 (Homo sapiens, UniProt P05556+P13612).
T1 construct: integrin VLA-4, expressed on the Jurkat J6 (human lymphoblast cell line) cell membrane; endogenous in cells; host or cells: Jurkat J6 cells (integrin). zzVCAM-1 was made in house in Drosophila melanogaster S2 cells
In words: Jurkat J6/VCAM-1 adhesion assay. The assay is classed as cell-based. The settings on record: Jurkat J6 cell adhesion to VCAM-1, 1 mM MnCl2; mean of n experiments. The protocol: (1) Jurkat J6/VCAM-1 Adhesion Assay
This assay was used to investigate the interaction of the integrin VLA-4, expressed on the Jurkat J6 (human lymphoblast cell line) cell membrane with VCAM-1. Polystyrene 96-well microtitre plates were coated with human immunoglobulin G (IgG; Sigma Chemicals, UK, Product No. 14506) at a concentration of 0.05 mg ml^−1 in bicarbonate buffer (36 mM NaHCO3 and 22 mM Na2CO3, prepared in Dulbecco's phosphate buffered saline at pH 9.8 (PBS); Sigma Chemicals, UK, Product No. 14190-094) for 2 hours at 37° C. This solution was then aspirated and the plates were washed twice with PBS.
VCAM-1 was prepared by cloning its constituent seven domains into a Drosophila expression system with a zz (Protein A) tag. This zzVCAM-1 was then expressed from Drosophila melanogaster S2 cell culture, induced with copper. Protease inhibitors were added and the culture supernatant was clarified either by filtration through a 0.2 μm filter or by centrifugation. The zzVCAM-1 was then purified from this clarified medium using an IgG agarose column, equilibrated with either 20 mM sodium phosphate pH 7.2 alone or in the presence of 0.5M sodium chloride. Elution of zzVCAM-1 from the column was mediated using 3M ammonium thiocyanate, which was subsequently removed using a G25 desalting column, equilibrated with 20 mM sodium phosphate, pH 7.2. The purified zzVCAM-1 was then concentrated to a small volume (Amicon stirred cell concentrators) until a concentration of 62.5 ng ml^−1 was obtained, calculated using the extinction coefficient value.
This solution of zzVCAM-1 was then incubated overnight at 4° C. in the IgG coated microtitre plates with 3% bovine serum albumin (BSA) in PBS, followed by aspiration and two further washes with PBS. A concentration of the Jurkat J6 cells (6×10^6 cels ml^−1), grown in cell media RPMI 1640 (HyClone Ltd, Product No. B-9106-L) supplemented with 10% heat inactivated fetal calf serum (FCS; Gibco BRL, Product No. 10099-075) and 2 mM L-glutamine, were labelled with 10 μM of the fluorescent dye, 2′, 7′-bis(2-carboxyethyl)-5-(e6)-carboxyfluorescein acetoxymethyl ester (BCECF-AM; Molecular Probes Inc, Product No. B-1150) at 37° C. for 10 minutes. The excess dye was then removed by centrifugation at 500×g for 5 minutes and the cells were resuspended at a concentration of 1.2×10^7 cells ml^−1 in Hank's balanced salt solution (HBSS; Gibco BRL, Product No. 14190-094).
Equal volumes of compounds (dissolved in an appropriate solvent and diluted in HBSS containing 1 mM MnCl2) and the labelled Jurkat J6 cells, were added to the VCAM-1 coated plates and adhesion was allowed to proceed for 30 minutes at 37° C. Non, or loosely adhered cells, were removed by inversion of the plate and blotted with tissue paper. Two washes with PBS and further blotting were then performed, before the addition of 2% detergent (Triton-X®; Sigma Chemicals UK, Product No. X100). Counting was undertaken in a Wallac Viktor™ Fluorimeter, where low fluorescence values were indicative of compounds which had inhibited adhesion. All samples were assayed in singlicate and the following four parameter curve fit, shown by Equation (I) was applied: [formula]
Where a is the minimum, b is the Hill slope, c is the IC50 and d is the maximum. (Maximum and minimum values are those compared to adhesion in the absence of compound and in the presence of the dipotassium salt of 2 mM EDTA; Sigma Chemicals, UK, Product No. ED2P). Data is presented as the mean pIC50 with the standard error of the mean of n experiments.

T1 sequence (P13612 34-1032): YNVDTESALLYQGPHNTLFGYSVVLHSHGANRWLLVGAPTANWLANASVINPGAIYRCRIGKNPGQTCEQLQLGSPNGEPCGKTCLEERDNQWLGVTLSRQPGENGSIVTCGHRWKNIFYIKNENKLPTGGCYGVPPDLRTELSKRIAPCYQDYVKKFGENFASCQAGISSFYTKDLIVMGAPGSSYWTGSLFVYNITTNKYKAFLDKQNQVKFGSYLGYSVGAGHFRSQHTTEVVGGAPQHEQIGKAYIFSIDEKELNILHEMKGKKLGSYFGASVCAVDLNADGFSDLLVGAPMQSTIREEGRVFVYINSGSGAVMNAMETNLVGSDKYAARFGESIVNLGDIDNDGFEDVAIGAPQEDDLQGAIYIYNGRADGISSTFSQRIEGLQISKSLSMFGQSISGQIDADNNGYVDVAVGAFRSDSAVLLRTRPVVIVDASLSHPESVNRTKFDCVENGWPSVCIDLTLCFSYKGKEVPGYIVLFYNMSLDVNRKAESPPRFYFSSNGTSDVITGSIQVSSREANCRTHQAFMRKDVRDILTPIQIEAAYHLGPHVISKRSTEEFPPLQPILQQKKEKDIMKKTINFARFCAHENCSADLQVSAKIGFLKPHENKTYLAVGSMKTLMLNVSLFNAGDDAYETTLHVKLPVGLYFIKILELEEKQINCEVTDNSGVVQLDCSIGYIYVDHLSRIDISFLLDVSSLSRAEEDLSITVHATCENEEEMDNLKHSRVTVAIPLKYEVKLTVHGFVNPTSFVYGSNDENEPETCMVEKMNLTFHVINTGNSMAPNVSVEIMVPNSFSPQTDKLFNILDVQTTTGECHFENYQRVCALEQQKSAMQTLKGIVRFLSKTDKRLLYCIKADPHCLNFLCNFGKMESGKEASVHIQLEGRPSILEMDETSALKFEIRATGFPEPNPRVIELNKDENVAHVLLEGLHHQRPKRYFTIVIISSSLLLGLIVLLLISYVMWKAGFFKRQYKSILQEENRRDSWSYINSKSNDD
T1 sequence (P05556 21-798): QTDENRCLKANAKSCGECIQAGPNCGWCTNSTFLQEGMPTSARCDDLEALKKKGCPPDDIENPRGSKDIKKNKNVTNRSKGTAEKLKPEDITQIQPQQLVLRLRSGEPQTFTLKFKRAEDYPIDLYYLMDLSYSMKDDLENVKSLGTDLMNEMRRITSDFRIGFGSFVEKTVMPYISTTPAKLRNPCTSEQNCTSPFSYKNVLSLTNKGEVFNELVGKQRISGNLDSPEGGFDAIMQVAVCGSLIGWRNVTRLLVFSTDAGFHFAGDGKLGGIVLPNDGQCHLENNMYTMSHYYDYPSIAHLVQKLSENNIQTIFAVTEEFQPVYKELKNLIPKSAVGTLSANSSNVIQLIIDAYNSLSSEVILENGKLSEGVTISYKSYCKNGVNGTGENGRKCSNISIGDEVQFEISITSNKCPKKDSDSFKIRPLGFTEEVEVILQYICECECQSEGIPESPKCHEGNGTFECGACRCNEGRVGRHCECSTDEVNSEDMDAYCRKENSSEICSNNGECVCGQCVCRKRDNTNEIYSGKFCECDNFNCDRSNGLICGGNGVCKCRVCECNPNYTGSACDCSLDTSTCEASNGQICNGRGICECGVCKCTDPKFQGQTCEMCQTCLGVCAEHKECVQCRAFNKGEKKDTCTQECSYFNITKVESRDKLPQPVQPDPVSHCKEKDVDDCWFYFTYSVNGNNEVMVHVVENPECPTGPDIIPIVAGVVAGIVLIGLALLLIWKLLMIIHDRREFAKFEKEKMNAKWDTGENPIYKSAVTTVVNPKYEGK

For `CC(C)C[C@H](NC(=O)COc1ccccc1C(=O)c1ccccc1)C(=O)N[C@@H](Cc1ccc(OC(=O)N2CCC(NC(=O)Cc3ccccc3)CC2)cc1)C(=O)O` [Example 1, (2S)-2-[((2S)-2-{[2-(2-Benzoylphenoxy)acetyl]amino}-4-methylpentanoyl)amino]-3-{4-[({4-[(2-phenylacetyl)amino]-1-piperidinyl}carbonyl)oxy]phenyl}propanoic acid], the IC50 (in general, the concentration that inhibits the measured activity by half) was 13.2 nM.

Regarding `CC(C)C[C@H](NC(=O)COc1cc2ccccc2cc1C(=O)N1CCCCC1)C(=O)N[C@@H](Cc1ccc(OC(=O)N2CCC(NC(=O)Cc3ccccc3)CC2)cc1)C(=O)O` [Example 2, (2S)-2-({(2S)-4-Methyl-2-[(2-{[3-(1-piperidinylcarbonyl)-2-naphthyl]oxy}acetyl)amino]pentanoyl}amino)-3-{4-[({4-[(2-phenylacetyl)amino]-1-piperidinyl}carbonyl)oxy]phenyl}propanoic acid], the IC50 was 9.33 nM.

As to `CC(C)C[C@H](NC(=O)COc1ccc(C(=O)N2CCCCC2)cc1)C(=O)N[C@@H](Cc1ccc(OC(=O)N2CCC(NC(=O)C(C3CCCCC3)C3CCCCC3)CC2)cc1)C(=O)O` [Example 3, (2S)-3-{4-[({4-[(2,2-Dicyclohexylacetyl)amino]-1-piperidinyl}carbonyl)oxy]phenyl}-2-{[(2S)-4-methyl-2-({2-[4-(1-piperidinylcarbonyl)phenoxy]acetyl}amino)pentanoyl]amino}propanoic acid], 41.7 nM corresponded to half-maximal inhibition (IC50).

For the compound `CC(C)C[C@H](NC(=O)COc1ccc(C(=O)N2CCCCC2)cc1)C(=O)N[C@@H](Cc1ccc(OC(=O)N2CCOCC2)cc1)C(=O)O` [Example 4, (2S)-2-{[(2S)-4-Methyl-2-({2-[4-(1-piperidinylcarbonyl)phenoxy]acetyl}amino)pentanoyl]amino}-3-{4-[(4-morpholinylcarbonyl)oxy]phenyl}propanoic acid], the IC50 is 16.6 nM.

The compound `CC(C)C[C@H](NC(=O)COc1ccc(C(=O)N2CCCCC2)cc1)C(=O)N[C@@H](Cc1ccc(OC(=O)N2CCC(C(N)=O)CC2)cc1)C(=O)O` [Example 5, (2S)-3-[4-({[4-(Aminocarbonyl)-1-piperidinyl]carbonyl}oxy)phenyl]-2-{[(2S)-4-methyl-2-({2-[4-(1-piperidinylcarbonyl)phenoxy]acetyl}amino)pentanoyl]amino}propanoic acid] gave an IC50 of 7.76 nM.

With `CC(C)C[C@H](NC(=O)COc1ccccc1C(=O)c1ccccc1)C(=O)N[C@@H](Cc1ccc(OC(=O)N2CCC(C(N)=O)CC2)cc1)C(=O)O` [Example 6, (2S)-3-[4-({[4-(Aminocarbonyl)-1-piperidinyl]carbonyl}oxy)phenyl]-2-[((2S)-2-{[2-(2-benzoylphenoxy)acetyl]amino}-4-methylpentanoyl)amino]propanoic acid], inhibition was half-maximal at 5.62 nM (IC50).

`CC(C)C[C@H](NC(=O)COc1ccc(C(N)=O)cc1)C(=O)N[C@@H](Cc1ccc(OC(=O)N2CCC(C(N)=O)CC2)cc1)C(=O)O` [Example 7, (2S)-2-{[(2S)-2-({2-[4-(Aminocarbonyl)phenoxy]acetyl}amino)-4-methylpentanoyl]amino}-3-[4-({[4-(aminocarbonyl)-1-piperidinyl]carbonyl}oxy)phenyl]propanoic acid] showed an IC50 of 2.63 nM.

The compound `CC(C)C[C@H](NC(=O)COc1ccccc1I)C(=O)N[C@@H](Cc1ccc(OC(=O)N2CCC(NC(=O)CC3CCCCC3)CC2)cc1)C(=O)O` [Example 8, (2S)-3-{4-[({4-[(2-Cyclohexylacetyl)amino]-1-piperidinyl}carbonyl)oxy]phenyl}-2-[((2S)-2-{[2-(2-iodophenoxy)acetyl]amino}-4-methylpentanoyl)amino]propanoic acid] gave an IC50 of 42.7 nM.

Compound `CC(C)C[C@H](NC(=O)COc1ccccc1I)C(=O)N[C@@H](Cc1ccc(OC(=O)N2CCC(NC(=O)C(C3CCCCC3)C3CCCCC3)CC2)cc1)C(=O)O` [Example 9, (2S)-3-{4-[({4-[(2,2-Dicyclohexylacetyl)amino]-1-piperidinyl}carbonyl)oxy]phenyl}-2-[((2S)-2-{[2-(2-iodophenoxy)acetyl]amino}-4-methylpentanoyl)amino]propanoic acid] had an IC50 of 26.3 nM.

`CC(C)C[C@H](NC(=O)c1cccc2c1oc1ccccc12)C(=O)N[C@@H](Cc1ccc(OC(=O)N2CCOCC2)cc1)C(=O)O` [Example 10, (2S)-2-({(2S)-2-[(Dibenzo[b,d]furan-4-ylcarbonyl)amino]-4-methylpentanoyl}amino)-3-{4-[(4-morpholinylcarbonyl)oxy]phenyl}propanoic acid] showed an IC50 of 8.32 nM.

As for `CC(C)C[C@H](NC(=O)c1cccc2c1oc1ccccc12)C(=O)N[C@@H](Cc1ccc(OC(=O)N2CCN(C(=O)c3ccco3)CC2)cc1)C(=O)O` [Example 11, (2S)-2-({(2S)-2-[(Dibenzo[b,d]furan-4-ylcarbonyl)amino]-4-methylpentanoyl}amino)-3-[4-({[4-(2-furoyl)-1-piperazinyl]carbonyl}oxy)phenyl]propanoic acid], the IC50 is 8.32 nM.

In turn, `CC(C)C[C@H](NC(=O)c1cccc2c1oc1ccccc12)C(=O)N[C@@H](Cc1ccc(OC(=O)N2CCN(C(=O)c3ccccc3)CC2)cc1)C(=O)O` [Example 12, (2S)-3-(4-{[(4-Benzoyl-1-piperazinyl)carbonyl]oxy}phenyl)-2-({(2S)-2-[(dibenzo[b,d]furan-4-ylcarbonyl)amino]-4-methylpentanoyl}amino)propanoic acid] showed an IC50 of 11 nM.

`CC(C)C[C@H](NC(=O)c1cccc2c1oc1ccccc12)C(=O)N[C@@H](Cc1ccc(OC(=O)N2CCC(NC(=O)Cc3ccccc3)CC2)cc1)C(=O)O` [Example 13, (2S)-2-({(2S)-2-[(Dibenzo[b,d]furan-4-ylcarbonyl)amino]-4-methylpentanoyl}amino)-3-{4-[({4-[(2-phenylacetyl)amino]-1-piperidinyl}carbonyl)oxy]phenyl}propanoic acid] had an IC50 of 25.7 nM.

`CC(C)C[C@H](NC(=O)COc1ccccc1I)C(=O)N[C@@H](Cc1ccc(OC(=O)N2CCC(NC(=O)Cc3ccccc3)CC2)cc1)C(=O)O` [Example 14, (2S)-2-[((2S)-2-{[2-(2-Iodophenoxy)acetyl]amino}-4-methylpentanoyl)amino]-3-{4-[({4-[(2-phenylacetyl)amino]-1-piperidinyl}carbonyl)oxy]phenyl}propanoic acid] showed an IC50 of 16.6 nM.

`CC(=O)N1CCN(C(=O)Oc2ccc(C[C@H](NC(=O)[C@H](CC(C)C)NC(=O)COc3ccccc3I)C(=O)O)cc2)CC1` [Example 15, (2S)-3-(4-{[(4-Acetyl-1-piperazinyl)carbonyl]oxy}phenyl)-2-[((2S)-2-{[2-(2-iodophenoxy)acetyl]amino}-4-methylpentanoyl)amino]propanoic acid] gave an IC50 of 2.69 nM.

Compound `CC(=O)N1CCN(C(=O)Oc2ccc(C[C@H](NC(=O)[C@H](CC(C)C)NC(=O)c3cccc4c3oc3ccccc34)C(=O)O)cc2)CC1` [Example 18, (2S)-3-(4-{[(4-Acetyl-1-piperazinyl)carbonyl]oxy}phenyl)-2-({(2S)-2-[(dibenzo[b,d]furan-4-ylcarbonyl)amino]-4-methylpentanoyl}amino)propanoic acid] gave an IC50 of 3.72 nM.
